Key:
semi-comatose patient = settings: reverts when drug action subsides; cited from earlier work
abnormal baboon = settings: cited from earlier work
[1] = system: patient after subarachnoid haemorrhage; experiment: Brain SPECT before and after zolpidem after subarachnoid haemorrhage (Example 4); type: in vivo, human; settings: 1 hour after 10 mg zolpidem
[2] = system: patient who had suffered a stroke; experiment: Clinical observation after zolpidem in a stroke patient (Example 1); type: in vivo, human; settings: 10 mg zolpidem
Excerpt: They had suffered a stroke several years before and presented with left-sided paraplegia since the onset of their stroke. Their cognition was still normal but they had some aphasia and decreased proprioseption that was evident from their inability to use scissors with their right hand. The clinical and neurological features of the patient were unremarkable apart from the above.

[3] = system: patient after subarachnoid haemorrhage; experiment: Hearing and speech evaluation before and after zolpidem after subarachnoid haemorrhage (Example 4); type: in vivo, human
Description: The patient was then examined for any changes in hearing. […] The patient was also evaluated by the speech therapist before and after zolpidem.

[4] = system: patients with Spinocerebellar Ataxia Type 2; experiment: Clinical response to zolpidem in a family with Spinocerebellar Ataxia Type 2 (Example 2); type: in vivo, human
Excerpt: There is currently no effective pharmacologic treatment for spinocerebellar ataxia. […] Spinocerebellar Ataxia Type 2 was confirmed by molecular analysis.

[5] = system: patient with Ramsay-Hunt syndrome; experiment: Zolpidem therapy of Ramsay-Hunt syndrome (Example 3); type: in vivo, human
Excerpt: On treatment, the following features improved. […] Also, as part of the syndrome they could not close their left eye. After zolpidem they could.

Parkinson's disease = settings: in vivo; cited from earlier work

SMILES: CN1C(=O)CN=C(c2ccccc2)c2cc(Cl)ccc21 [diazepam]
- state of consciousness after drug application (semi-comatose patient): not awakened

SMILES: CCOC(=O)c1ncn2c1CN(C)C(=O)c1cc(F)ccc1-2 [flumazenil]
- effect on zolpidem-induced asymmetric perfusion pattern (abnormal baboon; abnormal baboon): attenuates the influence of zolpidem

SMILES: Cc1ccc(-c2nc3ccc(C)cn3c2CC(=O)N(C)C)cc1 [zolpidem]
- defect in the right parietal aspect of the brain [1]: remained unchanged
- brain perfusion (abnormal baboon; brain-abnormal baboon): asymmetric increased perfusion
- clinical changes after zolpidem [2]: no marked clinical changes
- ability to use scissors ([2]; for the next few hours until drug action subsided): able to use scissors
- hearing (pre and post-zolpidem audiograms) ([3]; after 10 mg zolpidem): improved
- sleepiness ([3]; after 10 mg zolpidem): slightly sleepy
- speech ability ([3]; after 10 mg zolpidem): improved markedly
- persistence of hearing and speech improvements ([3]; even after halving the zolpidem dose): remained for the duration of drug action
- time to clinical improvement ([4]; 10 mg zolpidem): ≤ 1 h
- patients improved clinically ([4]; family of five patients, 10 mg zolpidem): four
- ataxia, intention tremor and titubation ([4]; patient P1): improved moderately
- ataxia, intention tremor and titubation ([4]; patient P2): improved
- ataxia, intention tremor and titubation ([4]; patient P3): improved moderately
- clinical improvement ([4]; patient P4): no improvement
- ataxia, intention tremor and titubation ([4]; patient P5): slightly improved
- state of consciousness after drug application (semi-comatose patient): exits their permanent vegetative state
- closing of left eye ([5]; after zolpidem): they could
- drinking fluids ([5]; on zolpidem treatment): able to drink fluids directly from a cup
- tonus of facial nerves ([5]; on zolpidem treatment): improved
- obsessive-compulsive symptoms (cessation of verbal iterations) (Parkinson's disease): improved
- symptoms of PD (akinesia and rigidity) (Parkinson's disease): improved
